Laboratory results from article PMC4326489, “Efficacy and pharmacokinetic evaluation of a novel anti-malarial compound (NP046) in a mouse model” (Malaria Journal, 2015).
≈ marks a conversion by molar mass, not a printed value.

Experiments:
[1] = test system: Plasmodium berghei transfected with green fluorescence protein (strain ANKA); experiment: In vivo efficacy (four-day dosing) in P. berghei-infected mice, % parasitaemia by flow cytometry; parameters: species or system Plasmodium berghei in male C57BL/6 mice; conditions: 10 mg/kg oral, day five post-infection
Description: Plasmodium berghei transfected with green fluorescence protein (strain ANKA), a chloroquine-sensitive strain, was stored in liquid nitrogen. Parasites were thawed and administered intraperitoneally (IP) to infect two donor mice a week before the experiment commenced. […] Finally, each of the test animals received 200 μl of the P. berghei-infected RBCs (1×10^7 per 200 μl PBS) IP to infect them with the parasite. There were three animals per dose group, and each of them received 200 μl of NP046 in water orally and intravenously (volume adjusted relative to the weight of mouse) at their respective dose concentration as shown below:
The test compound was administered to the animals once a day for four days. […] Blood samples were collected via tail bleeding in tubes containing PBS on day 5, and % parasitaemia was determined with FACSCalibur™ using the software CellQuestPro [5].
Finally, the percentage parasite growth inhibition was calculated using the following equation [6]: [drawing 1]

[2] = Kinetic solubility (HPLC-UV); format: physicochemical; conditions: aqueous buffer, kinetic from dmso stock, PBS pH 2.0
Description: The concentration of the test compound (x) in PBS samples was calculated from the peak area (y) in its UV chromatogram by extrapolation from the three-point calibration line, using the equation y = ax + b; where a = slope and b = intercept.
Summary of the assay method for the determination kinetic solubility:
PBS was prepared and its pH adjusted to 2.0 and 7.4
primary stock solutions of the test compounds and controls (reserpine and hydrocortisone) in DMSO at 10 mM were prepared
Samples were briefly vortex mixed
samples were incubated for 2 hours while mixing in an incubator with orbital shaker at 200 rpm
samples were centrifuged at 3500 rpm for 15 minutes at 22 °C
the supernatant of the standards were transferred from the clear 96-well plate into an opaque, round bottom 96-well analysis plate, while the aqueous samples were filtered using a vacuum manifold through a multi-screen filter plate (MSRLN 0450, 0.4 µM), into the same opaque, round bottom 96-well plate
samples were analysed using HPLC-UV method by injecting the STDs in duplicate, and the samples in singlet.

| solubility at 2 h [2] [µM] | SMILES | % growth inhibition ([1]; relative to negative control (placebo)) [%] | % parasitaemia ([1]; once a day for four days, mean ± S.E.M) [%] |
| --- | --- | --- | --- |
| – | CCN(CC)CCCC(C)Nc1ccnc2cc(Cl)ccc12 (stereo not drawn) [Positive control, chloroquine phosphate, reference compound] | 100 | 0.01 ± 0.0 |
| 193 (≈ 117 µg/mL) | COC(=O)[C@H]1[C@H]2C[C@@H]3c4[nH]c5cc(OC)ccc5c4CCN3C[C@H]2C[C@@H](OC(=O)c2cc(OC)c(OC)c(OC)c2)[C@@H]1OC [Reserpine, reference compound] | – | – |
